Assay results: US10899754B2, “Modulators of indoleamine 2,3-dioxygenase” (GLAXOSMITHKLINE INTELLECTUAL PROPERTY DEVELOPMENT LIMITED, priority 2016, dated 2021)
Where two headings read alike, the source gives them in different places. Blank lines part the entries; values can stand above or below the compound they belong to.

Tests used:
[1] = target: indoleamine 2, 3-dioxygenase (IDO1) (Homo sapiens, UniProt P14902); test: IDO1 HeLa RapidFire MS assay (kynurenine detection by mass spectrometry); assay type: cell-based; parameters: to induce the expression of indoleamine 2, 3-dioxygenase (IDO1); conditions: HeLa cells, pIC50, read-out: IDO1_HELA_PXC50 (converted)
Sequence of indoleamine 2, 3-dioxygenase (IDO1) (P14902 whole entry): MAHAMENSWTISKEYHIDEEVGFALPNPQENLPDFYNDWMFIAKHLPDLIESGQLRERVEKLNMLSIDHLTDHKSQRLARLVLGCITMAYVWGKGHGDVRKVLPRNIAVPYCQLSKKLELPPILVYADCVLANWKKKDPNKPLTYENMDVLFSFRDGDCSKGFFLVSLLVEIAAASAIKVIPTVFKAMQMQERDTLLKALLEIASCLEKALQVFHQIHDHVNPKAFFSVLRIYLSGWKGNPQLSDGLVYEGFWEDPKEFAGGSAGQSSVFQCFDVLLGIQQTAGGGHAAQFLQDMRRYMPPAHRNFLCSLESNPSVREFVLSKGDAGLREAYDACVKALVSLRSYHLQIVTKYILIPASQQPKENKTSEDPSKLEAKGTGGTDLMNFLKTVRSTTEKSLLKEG
Method in brief: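 Compound potency reported as pIC50 from kynurenine/internal-standard ratio (RapidFire MS) in supernatant of IFN-γ-induced (10 nM) HeLa cells, 5,000 per well, after 2 days' treatment with 11-point dilutions. Cytotoxicity in the same format by luminescent ATP detection, reported as pCC50.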

[2] = system: human epithelial HeLa cells; test: HeLa cytotoxicity assay (CellTiter-Glo); assay type: cell-based; conditions: pCC50
Method in brief: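 HeLa cells (5,000/well) stimulated with 10 nM IFN-γ, exposed to 11-point 3-fold compound dilutions for 2 days at 37 °C; viability by CellTiter-Glo ATP luminescence. Normalized to cell-free (100% cytotoxicity) and stimulated-cell DMSO (0%) controls; four-parameter fit gives pCC50.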

[3] = Tolerability, body weight and hepatic functions in Beagle dogs, 7 day repeat oral administration; assay type: in vivo; conditions: Beagle dog, 20 mg/kg PO BID for 7 days
Protocol: FIG. 1 is daily body weights of Beagle dogs during the study of example 23, 20 mg/kg PO BID dose.
FIG. 2 is daily hepatic enzyme levels of Beagle dogs during the study: ALT (alanine aminotransferase), AST (aspartate aminotransferase), ALP (alkaline phosphatase) and T-Bil (total bilirubin) for example 23, 20 mg/kg PO BID dose.
(§1) To understand its toxicokinetics and potential effect on hepatic functions, EXAMPLE 23 was orally dosed to Beagle dogs for 7 consecutive days.

[4] = Toxicokinetics in Beagle dogs, 7 day repeat oral administration; assay type: in vivo; conditions: 20 mg/kg PO BID; for Therapeutic Index AUC (0-12 hr): versus predicted human efficacious AUC 0.376 μg * hr/mL; for Therapeutic Index Cmax: versus predicted human efficacious Cmax 0.078 μg/mL; for Cmax / AUC(0-t): Beagle, dog, po, 20 mg/kg; for Cmax / AUC(0-t) / Tmax: plasma; for AUC(0-t): Subject 1, read-out: AUC (0-12 hr)
From the text: as §1

IC50 [1]: 2.51 nM
Structure (SMILES): CC(C)CN(c1ccc([C@H](C)CC(=O)O)cc1Nc1nc(C(F)(F)F)ns1)C1CCOCC1 [Example 20, (R)-3-(4-(Isobutyl(tetrahydro-2H-pyran-4-yl)amino)-3-((3-(trifluoromethyl)-1,2,4-thiadiazol-5-yl)amino)phenyl)butanoic Acid]
HELA_IDO1_TOX_PXC50 [2]: <5

Structure (SMILES): CC(C)CN(c1ccc([C@H](C)CC(=O)O)cc1Nc1nnc(C2CC2)s1)C1CCOCC1 [Example 23, (R)-3-(3-((5-cyclopropyl-1,3,4-thiadiazol-2-yl)amino)-4-(isobutyl (tetrahydro-2H-pyran-4-yl)amino)phenyl)butanoic Acid]
Clinical observations [3]: no clinical observations were made
Tolerability throughout the study [3]: well tolerated
Hepatic functions measured by serum ALT, AST, ALP and T-Bil levels ([3]; FIG. 2): in the normal variable ranges
Body weights ([3]; male and female, FIG. 1): constant
IC50 [1]: 3.98 nM
HELA_IDO1_TOX_PXC50 [2]: <5
Therapeutic Index AUC (0-12 hr) ([4]; Beagle dog, Day1, Female): 4
Therapeutic Index Cmax ([4]; Beagle dog, Day1, Female): 13
Therapeutic Index AUC (0-12 hr) ([4]; Beagle dog, Day1, Male): 14
Therapeutic Index Cmax ([4]; Beagle dog, Day1, Male): 31
Therapeutic Index AUC (0-12 hr) ([4]; Beagle dog, Day7, Female): 10
Therapeutic Index Cmax ([4]; Beagle dog, Day7, Female): 50
Therapeutic Index AUC (0-12 hr) ([4]; Beagle dog, Day7, Male): 40
Therapeutic Index Cmax ([4]; Beagle dog, Day7, Male): 81
Therapeutic coverage in AUC0-12 for the predicted human efficacious dose ([4]; Beagle dog, Day 7, average): ~25 fold
Therapeutic coverage in Cmax for the predicted human efficacious dose ([4]; Beagle dog, Day 7, average): ~66 fold
Time quantifiable in plasma post the start of the oral dose ([4]; Beagle dog, Days 1 and 7): up to 24 hours
Increase in systemic exposures (Cmax and AUC0-12 values) on Day 7 in comparison to Day 1 ([4]; Beagle dog, both dogs): ~3 fold
Cmax ([4]; female, Day1, Female, Subject 1): 1 µg/mL
AUC(0-t) ([4]; female, Day1, Female): 1.5 µg·h/mL
Cmax ([4]; female, Day7, Female, Subject 1): 3.9 µg/mL
AUC(0-t) ([4]; female, Day7, Female): 3.8 µg·h/mL
Cmax ([4]; male, Day1, Male, Subject 1): 2.4 µg/mL
AUC(0-t) ([4]; male, Day1, Male): 5.1 µg·h/mL
Cmax ([4]; male, Day7, Male, Subject 1): 6.3 µg/mL
AUC(0-t) ([4]; male, Day7, Male): 14.9 µg·h/mL
Tmax ([4]; Beagle dog, Day1, Male, Subject 1): 30 min
Tmax ([4]; Beagle dog, Day7, Female, Subject 1): 30 min
Tmax ([4]; Beagle dog, post dose on Days 1 and 7): 30 min
